The results in this text go back to patent US20090076098A1, “METHODS, KITS, AND COMPOUNDS FOR DETERMINING RESPONSIVENESS TO TREATMENT OF A PATHOLOGICAL DISORDER BY EPOTHILONES” (priority 2007, published 2009).

In data set [1] the test system is non small cell lung cancer (NSCLC) xenograft models. The format is in vivo. As to conditions: for percentage of tumors with a T/C ratio<20%: share of models; for percentage of responses overall (T/C): share of models responding. The procedure:
FIG. 1: Preclinical lung cancer study design: 22 non small cell lung cancer (NSCLC) xenograft models were derived from patients primary tumors directly after surgery; at low murine passages response to Sagopilone and standard chemotherapy was assessed and samples grouped into responders and non-responders. RNA from untreated control tumors was subjected to Affymetrix gene expression analysis for discrimination of gene expression levels at baseline with tumor response.
Lung cancer xenograft models were established by subcutaneously transplanting fresh tumor material from NSCLC patients into nude mice. Tumor types included pleomorphic carcinoma (7187, 7336), squamous cell carcinoma (7126, 7177, 7298, 7343, 7462, 7433, 7530), dedifferentiated carcinoma (7668), adenocarcinoma (7064, 7198, 7406, 7387, 7466, 7612) and small cell lung cancer ([…]).
Antitumor activity was determined using either the reduction in tumor area in treated versus control mice (T/C ratio), or the mean change in absolute tumor volume compared with volume at baseline (day of first treatment).
1° lung cancer biopsies obtained from patients with established cancer were transplanted into nude mice. Tumor growth curves for the treatment with Etoposide, Carboplatin, Gemcitabine, Taxol, Navelbine, Cetuximab, Erlotinib und Sagopilone were generated. Mutation status of p53 was analyzed in the models according to methods known in the art. Fourteen Sagopilone responders and eight Sagopilone non-responders were characterized in long-term experiments. A PBS control group was treated with PBS or Sagopilone for 24 hrs before sacrifice. RNA for Sagopilone responder and non-responder models were isolated according to methods known in the art and were hybridized onto arrays according to the manufacturer's instructions.

Another data set deals with A549 NSCLC cells. The data set can be described thus: A549 NSCLC xenograft in nude mice: Sagopilone combined with acetazolamide. The format is in vivo. As to conditions: acetazolamide 40 mg/day p.o. with Sagopilone 6 or 8 mg/kg, FIG. 11. The procedure:
FIG. 11: A549 NSCLC cells were xenotransplanted into nude mice. Mice were treated starting on day 7 after tumor transplantation as indicated: Sagopilone 6 mg/kg or 8 mg/kg were given on days 17, 32 and 45 after transplantation as indicated by arrows, acetazolamide 40 mg/day p.o. was given either daily or twice a day for five days starting on the day of Sagopilone administration (2 h before and 2 h after application of Sagopilone).

The mark [2] stands for this setting: 22 NSCLC xenograft models, FIG. 4, count.

Where “and” joins values, the source holds several entries; their conditions need not be identical. Equal values may be shown once.

Take `CC(=O)O[C@H]1C(=O)[C@@]2(C)[C@H]([C@H](OC(=O)c3ccccc3)[C@]3(O)C[C@H](OC(=O)[C@H](O)[C@@H](NC(=O)c4ccccc4)c4ccccc4)C(C)=C1C3(C)C)[C@]1(OC(C)=O)CO[C@@H]1C[C@@H]2O` [Paclitaxel]: in data set [1] (lung cancer xenografts), the “percentage of tumors with a T/C ratio<20%” value is 56.2% and the “percentage of responses overall (T/C)” value is on record as 81.2%.
With `C=CC[C@H]1C(=O)C(C)(C)[C@@H](O)CC(=O)O[C@H](c2ccc3sc(C)nc3c2)C[C@@H]2O[C@]2(C)CCC[C@H](C)[C@@H]1O` [Sagopilone, (1S,3S,7S,10R,11S,12S,16R)-7,11-Dihydroxy-10-allyl-8,8,12,16-tetramethyl-3-(2-methyl-benzothiazol-5-yl)-4,17-dioxa-bicyclo[14.1.0]heptadecane-5,9-dione], in data set [1] (setting [2]), the “samples with stable disease” value is on record as “three” and the “samples with tumor regression” value is “Eleven”. In addition, the “models being non-responders (tumor progression), clinical criteria” value in data set [1] (22 NSCLC xenograft models, count of models) is “eight”. The “models showing response / tumor growth inhibition by T/C value” in data set [1] (22 lung cancer xenografts, tumor volume treated vs control, count of models) was 22 and 22 of 22. Moreover, the “number of NSCLC with a T/C ratio<20%” value in data set [1] (lung cancer xenografts, count of models) was determined as 12. Besides, the “percentage of tumors with a T/C ratio<20%” value in data set [1] (lung cancer xenografts) is reported as 76.5%. In data set [1] (model Lu7198, FIG. 3B), the “response of xenograft model Lu7198” value is recorded as “tumor progression”. Moreover, the “response of xenograft model Lu7298” value in data set [1] (model Lu7298, FIG. 3A) is reported as “tumor shrinkage”. In addition, the “activity and tolerability compared with commonly used cytotoxic agents in NSCLC” value in data set [1] (vs carboplatin, paclitaxel, gemcitabine, etoposide, vinorelbine, in words) was “superior activity and tolerability”.
With `CC(=O)Nc1nnc(S(N)(=O)=O)s1` [acetazolamide], in the data set on A549 NSCLC cells, the “effect of combination with an epothilone on tumor response” value was “sensitization”.
On to `N.N.O=C([O-])C1(C(=O)[O-])CCC1.[Pt+2]` [carboplatin], for which, in data set [1] (lung cancer xenografts), the “percentage of tumors with a T/C ratio<20%” value is reported as 25.0% and the “percentage of responses overall (T/C)” value was 68.8%.
As to `Nc1ccn([C@@H]2O[C@H](CO)[C@@H](O)C2(F)F)c(=O)n1` [gemcitabine], in data set [1] (lung cancer xenografts, b271, FIGS. 2a and 2b), the “response (percentage of models), criteria not given” value is reported as 61.5%. For the same molecule, in data set [1] (lung cancer xenografts), the “percentage of tumors with a T/C ratio<20%” value came to 47.0% and the “percentage of responses overall (T/C)” value came out at 80.0%. Moreover, in data set [1] (mouse, in vivo), the “models in which at least 2 animals per group (n=6) could not be evaluated due to toxicity” value is reported as “seven” and the “toxicity in xenograft-bearing mice” value was “marked toxicity”. Besides, the “models in which toxicity prevented evaluation of any mice” value in data set [1] (nude, mouse, in vivo) was 2.
